{
  "source": "patent US10597388B2",
  "about": "“Pyridazinone herbicides” (FMC CORPORATION, priority 2014, dated 2020)",
  "assay_type_in_all_cases": "in vivo",
  "key": {"[1]": {"test_system": "blackgrass (Alopecurus myosuroides)", "test": "Test A greenhouse herbicide test, postemergence", "conditions": "for Blackgrass plant response rating: 1000 g ai/ha, 0 to 100 scale, 0 is no effect, 100 is complete control", "source_text": "(§1) At the same time, plants selected from these crop and weed species and also blackgrass (Alopecurus myosuroides), and galium (catchweed bedstraw, Galium aparine) were planted in pots containing the same blend of loam soil and sand and treated with postemergence applications of test chemicals formulated in the same manner. Plants ranged in height from 2 to 10 cm and were in the one- to two-leaf stage for the postemergence treatment. Treated plants and untreated controls were maintained in a greenhouse for approximately 10 d, after which time all treated plants were compared to untreated controls and visually evaluated for injury. Plant response ratings, summarized in Table A, are based on a 0 to 100 scale where 0 is no effect and 100 is complete control. A dash (-) response means no test result."}, "[2]": {"test_system": "galium (catchweed bedstraw, Galium aparine)", "test": "Test A greenhouse herbicide test, postemergence", "conditions": "for Galium plant response rating: 1000 g ai/ha, 0 to 100 scale, 0 is no effect, 100 is complete control", "source_text": "as §1"}, "kochia (Kochia scoparia)": {"test_system": "kochia (Kochia scoparia)", "test": "Test A greenhouse herbicide test, pre- and postemergence", "source_text": "(§2) Seeds of plant species selected from barnyardgrass (Echinochloa crus-galli), kochia (Kochia scoparia), ragweed (common ragweed, Ambrosia elatior), ryegrass, Italian (Italian ryegrass, Lolium multiflorum), crabgrass, large (large crabgrass, Digitaria sanguinalis), foxtail, giant (giant foxtail, Setaria faberii), momingglory (Ipomoea spp.), pigweed (Amaranthus retroflexus), velvetleaf (Abutilon theophrasti), wheat (Triticum aestivum), and corn (Zea mays) were planted into a blend of loam soil and sand and treated preemergence with a directed soil spray using test chemicals formulated in a non-phytotoxic solvent mixture which included a surfactant.\nas §1"}, "[3]": {"test_system": "ragweed (common ragweed, Ambrosia elatior)", "test": "Test A greenhouse herbicide test, pre- and postemergence", "conditions": "for Ragweed plant response rating: 0 is no effect, 100 is complete control", "source_text": "as §2, §1"}, "[4]": {"test_system": "barnyardgrass (Echinochloa crus-galli)", "test": "Test A greenhouse herbicide test, pre- and postemergence", "source_text": "as §2, §1"}, "[5]": {"test_system": "ryegrass, Italian (Italian ryegrass, Lolium multiflorum)", "test": "Test A greenhouse herbicide test, pre- and postemergence", "conditions": "for Ryegrass, Italian plant response rating: 0 is no effect, 100 is complete control", "source_text": "as §2, §1"}, "[6]": {"test_system": "wheat (Triticum aestivum)", "test": "Test A greenhouse herbicide test, pre- and postemergence", "conditions": "Postemergence; for Wheat plant response rating: 1000 g ai/ha, 0 to 100 scale, 0 is no effect, 100 is complete control", "source_text": "as §2, §1"}, "corn (Zea mays)": {"test_system": "corn (Zea mays)", "test": "Test A greenhouse herbicide test, pre- and postemergence", "conditions": "Postemergence; for Corn plant response rating: 1000 g ai/ha, 0 to 100 scale, 0 is no effect, 100 is complete control", "source_text": "as §2, §1"}, "[7]": {"test_system": "pigweed (Amaranthus retroflexus)", "test": "Test A greenhouse herbicide test, pre- and postemergence", "source_text": "as §2, §1"}, "[8]": {"test_system": "foxtail, giant (giant foxtail, Setaria faberii)", "test": "Test A greenhouse herbicide test, pre- and postemergence", "source_text": "as §2, §1"}, "[9]": {"conditions": "125 g ai/ha, 0 to 100 scale where 0 is no effect and 100 is complete control"}, "[10]": {"conditions": "500 g ai/ha, visual rating after approx. 10 d, 0 to 100 scale (0 no effect, 100 complete control)"}, "[11]": {"conditions": "Postemergence, 125 g ai/ha, 0 to 100 scale where 0 is no effect and 100 is complete control"}, "[12]": {"conditions": "Postemergence, 500 g ai/ha, visual rating after approx. 10 d, 0 to 100 scale (0 no effect, 100 complete control)"}, "[13]": {"conditions": "Preemergence, 125 g ai/ha, 0 to 100 scale where 0 is no effect and 100 is complete control"}, "[14]": {"conditions": "Preemergence, 500 g ai/ha, 0 to 100 scale where 0 is no effect and 100 is complete control"}, "[15]": {"conditions": "Postemergence, 1000 g ai/ha, 0 to 100 scale, 0 is no effect, 100 is complete control"}, "[16]": {"conditions": "Preemergence, 1000 g ai/ha, 0 to 100 scale, 0 no effect, 100 complete control"}, "[17]": {"conditions": "Postemergence, 1000 g ai/ha, 0 to 100 scale"}},
  "data": [
    {"smiles": "COc1nn(C)c(=O)c(-c2c(C)sc3ccccc23)c1OC(C)=O", "note": "[Compound 141]", "values": [
      {"measurement": "Plant response rating, Blackgrass", "setting": "[1]; [9]", "value": 0},
      {"measurement": "Plant response rating, Blackgrass", "setting": "[1]; [10]", "value": 50},
      {"measurement": "Plant response rating, Galium", "setting": "[2]; [9]", "value": 70},
      {"measurement": "Plant response rating, Galium", "setting": "[2]; [10]", "value": 90},
      {"measurement": "Plant response rating, Kochia", "setting": "kochia (Kochia scoparia); [11]", "value": 10},
      {"measurement": "Plant response rating, Kochia", "setting": "kochia (Kochia scoparia); [12]", "value": 30},
      {"measurement": "Kochia plant response rating", "setting": "kochia (Kochia scoparia); [13]", "value": 0},
      {"measurement": "Plant response rating, Kochia", "setting": "kochia (Kochia scoparia); [14]", "value": 60},
      {"measurement": "Plant response rating, Ragweed", "setting": "[3]; [11]", "value": 60},
      {"measurement": "Plant response rating, Ragweed", "setting": "[3]; [12]", "value": 40},
      {"measurement": "Plant response rating, Ragweed", "setting": "[3]; [14]", "value": 60},
      {"measurement": "Plant response rating, Barnyardgrass", "setting": "[4]; [11]", "value": 20},
      {"measurement": "Plant response rating, Barnyardgrass", "setting": "[4]; [12]", "value": 50},
      {"measurement": "Barnyardgrass plant response rating", "setting": "[4]; [13]", "value": 50},
      {"measurement": "Plant response rating, Barnyardgrass", "setting": "[4]; [14]", "value": 90},
      {"measurement": "Plant response rating, Ryegrass, Italian", "setting": "[5]; [11]", "value": 70},
      {"measurement": "Plant response rating, Ryegrass, Italian", "setting": "[5]; [12]", "value": 90},
      {"measurement": "Plant response rating, Ryegrass, Italian", "setting": "[5]; [14]", "value": 80},
      {"measurement": "Plant response rating, Wheat", "setting": "[6]; [9]", "value": 0},
      {"measurement": "Plant response rating, Wheat", "setting": "[6]; [10]", "value": 0},
      {"measurement": "Plant response rating, Corn", "setting": "corn (Zea mays); [9]", "value": 0},
      {"measurement": "Plant response rating, Corn", "setting": "corn (Zea mays); [10]", "value": 0},
      {"measurement": "Plant response rating, Pigweed", "setting": "[7]; [11]", "value": 0},
      {"measurement": "Plant response rating, Pigweed", "setting": "[7]; [12]", "value": 30},
      {"measurement": "Pigweed plant response rating", "setting": "[7]; [13]", "value": 40},
      {"measurement": "Plant response rating, Pigweed", "setting": "[7]; [14]", "value": 60},
      {"measurement": "Plant response rating, Foxtail, Giant", "setting": "[8]; [11]", "value": 20},
      {"measurement": "Plant response rating, Foxtail, Giant", "setting": "[8]; [12]", "value": 70},
      {"measurement": "Foxtail, Giant plant response rating", "setting": "[8]; [13]", "value": 30},
      {"measurement": "Plant response rating, Foxtail, Giant", "setting": "[8]; [14]", "value": 70}
    ]},
    {"smiles": "CC(=O)COc1c(C)nn(C)c(=O)c1-c1cccc2ccccc12", "note": "[Compound 178]", "values": [
      {"measurement": "Blackgrass plant response rating", "setting": "[1]", "value": 30},
      {"measurement": "Galium plant response rating", "setting": "[2]", "value": 70},
      {"measurement": "Kochia plant response rating", "setting": "kochia (Kochia scoparia); [15]", "value": 10},
      {"measurement": "Plant response rating, Kochia", "setting": "kochia (Kochia scoparia); [16]", "value": 0},
      {"measurement": "Ragweed plant response rating", "setting": "[3]; [17]", "value": 60},
      {"measurement": "Plant response rating, Ragweed", "setting": "[3]; [16]", "value": 0},
      {"measurement": "Barnyardgrass plant response rating", "setting": "[4]; [15]", "value": 0},
      {"measurement": "Plant response rating, Barnyardgrass", "setting": "[4]; [16]", "value": 0},
      {"measurement": "Ryegrass, Italian plant response rating", "setting": "[5]; [17]", "value": 70},
      {"measurement": "Plant response rating, Ryegrass, Italian", "setting": "[5]; [16]", "value": 60},
      {"measurement": "Wheat plant response rating", "setting": "[6]", "value": 0},
      {"measurement": "Corn plant response rating", "setting": "corn (Zea mays)", "value": 0},
      {"measurement": "Pigweed plant response rating", "setting": "[7]; [15]", "value": 70},
      {"measurement": "Plant response rating, Pigweed", "setting": "[7]; [16]", "value": 0},
      {"measurement": "Foxtail, Giant plant response rating", "setting": "[8]; [15]", "value": 0},
      {"measurement": "Plant response rating, Foxtail, Giant", "setting": "[8]; [16]", "value": 0}
    ]},
    {"smiles": "COC(=O)COc1c(C)nn(C)c(=O)c1-c1cccc2ccccc12", "note": "[Compound 182]", "values": [
      {"measurement": "Blackgrass plant response rating", "setting": "[1]", "value": 10},
      {"measurement": "Galium plant response rating", "setting": "[2]", "value": 50},
      {"measurement": "Kochia plant response rating", "setting": "kochia (Kochia scoparia); [15]", "value": 0},
      {"measurement": "Plant response rating, Kochia", "setting": "kochia (Kochia scoparia); [16]", "value": 0},
      {"measurement": "Ragweed plant response rating", "setting": "[3]; [17]", "value": 30},
      {"measurement": "Plant response rating, Ragweed", "setting": "[3]; [16]", "value": 0},
      {"measurement": "Barnyardgrass plant response rating", "setting": "[4]; [15]", "value": 0},
      {"measurement": "Plant response rating, Barnyardgrass", "setting": "[4]; [16]", "value": 0},
      {"measurement": "Ryegrass, Italian plant response rating", "setting": "[5]; [17]", "value": 0},
      {"measurement": "Plant response rating, Ryegrass, Italian", "setting": "[5]; [16]", "value": 0},
      {"measurement": "Wheat plant response rating", "setting": "[6]", "value": 0},
      {"measurement": "Corn plant response rating", "setting": "corn (Zea mays)", "value": 0},
      {"measurement": "Pigweed plant response rating", "setting": "[7]; [15]", "value": 0},
      {"measurement": "Plant response rating, Pigweed", "setting": "[7]; [16]", "value": 0},
      {"measurement": "Foxtail, Giant plant response rating", "setting": "[8]; [15]", "value": 0},
      {"measurement": "Plant response rating, Foxtail, Giant", "setting": "[8]; [16]", "value": 0}
    ]}
  ]
}
